Measurements reported in PMC3757949 (Nature medicine, 2012).

Tests used:
DIO mice = test: Body weight in diet-induced obese; format: in vivo; conditions: DIO male mice
GLP-1R [1] = target: T1, GLP-1R (Homo sapiens, UniProt P43220); test: GLP-1R activation, CRE-luciferase reporter gene assay in HEK 293 cells; format: cell-based
ERα and ERβ = format: cell-based, human
MCF-7 xenografts = test: Tumor growth in MCF-7 xenograft OVX nude mice; format: in vivo; conditions: for volume of harvested tumors / weight of harvested tumors: after 9 weeks of treatment, mean ± s.e.m.; for tumor incidence at day 68: conjugates 4,000 μg per kg body weight daily, estradiol as s.c. pellet
GLP-1R [2] = target: T1, GLP-1R; test: GLP-1R competitive binding
[3] = Conjugate degradation analysis in human plasma; format: in vitro ADME; conditions: pH 7.4, 37 °C

T1 sequence (P43220 24-463, species assumed): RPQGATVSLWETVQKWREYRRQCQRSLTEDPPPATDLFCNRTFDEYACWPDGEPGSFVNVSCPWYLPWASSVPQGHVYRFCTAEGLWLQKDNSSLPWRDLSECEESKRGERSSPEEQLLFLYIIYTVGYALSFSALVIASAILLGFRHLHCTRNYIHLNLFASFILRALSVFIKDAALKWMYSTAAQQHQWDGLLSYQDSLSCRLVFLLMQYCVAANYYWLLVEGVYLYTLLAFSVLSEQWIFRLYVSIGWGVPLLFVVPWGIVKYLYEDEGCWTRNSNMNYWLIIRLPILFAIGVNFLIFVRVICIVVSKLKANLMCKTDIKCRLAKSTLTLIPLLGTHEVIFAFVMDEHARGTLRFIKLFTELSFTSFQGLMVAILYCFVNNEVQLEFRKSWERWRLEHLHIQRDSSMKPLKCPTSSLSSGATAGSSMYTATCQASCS

Row | Compound | body weight loss (DIO mice; 400 μg per kg body weight daily s.c., 14 d (Fig. 5d)) [%] | fold lower GLP-1R potency in presence of plasma (GLP-1R [1]; 20% human plasma versus no plasma) | EC50 (ERα and ERβ; read-out: EC50, intracellular estrogen activity (ERE-mediated transcriptional activity), mean ± s.d.) [pM] | volume of harvested tumors (MCF-7 xenografts) | weight of harvested tumors (MCF-7 xenografts) [mg] | tumor incidence at day 68 (MCF-7 xenografts) [%] | GLP-1R binding affinity (IC50) compared to parent peptide (GLP-1R [2]) | intracellular estrogen activity compared to estrone (ERα and ERβ; cells do not express GLP-1R) | time to complete degradation with release of estrogen [3] [h] | decrease in body weight (DIO mice; 400 μg per kg body weight daily s.c., 2 weeks) [%] | body weight at end of treatment (DIO mice; 400 μg per kg body weight daily s.c., 2 weeks, mean ± s.e.m.) [g] | body weight at start of treatment (DIO mice; 400 μg per kg body weight, mean ± s.e.m.) [g] | GLP-1R biochemical signaling potency (EC50) compared to parent peptide (GLP-1R [1])
1 | CCCCCCCCCCCCCCCC(=O)N[C@@H](CCC(=O)N[C@@H](CCC(=O)NCCCC[C@H](NC(=O)[C@H](CO)NC(=O)[C@@H]1CCCN1C(=O)[C@@H]1CCCN1C(=O)[C@@H]1CCCN1C(=O)[C@H](C)NC(=O)CNC(=O)[C@H](CO)NC(=O)[C@H](CO)NC(=O)[C@@H]1CCCN1C(=O)CNC(=O)CNC(=O)[C@H](CCCCN)NC(=O)[C@@H](NC(=O)[C@H](CC(C)C)NC(=O)[C@H](Cc1c[nH]c2ccccc12)NC(=O)[C@H](C)NC(=O)[C@@H](NC(=O)[C@H](Cc1ccccc1)NC(=O)[C@H](CCC(=O)O)NC(=O)[C@H](CCCCN)NC(=O)[C@H](C)NC(=O)[C@H](C)NC(=O)[C@H](CCC(N)=O)NC(=O)[C@H](CCC(=O)O)NC(=O)[C@H](CCC(=O)O)NC(=O)[C@H](CC(C)C)NC(=O)[C@H](Cc1ccc(O)cc1)NC(=O)[C@H](CO)NC(=O)[C@H](CO)NC(=O)[C@@H](NC(=O)[C@H](CC(=O)O)NC(=O)[C@H](CO)NC(=O)[C@@H](NC(=O)[C@H](Cc1ccccc1)NC(=O)[C@@H](NC(=O)CNC(=O)[C@H](CCC(=O)O)NC(=O)C(C)(C)NC(=O)[C@@H](N)Cc1c[nH]cn1)[C@@H](C)O)[C@@H](C)O)C(C)C)[C@@H](C)CC)C(C)C)C(N)=O)C(=O)O)C(=O)O [acylated GLP-1 analog] | 30.1 | ~ 400 fold |  |  |  |  |  |  |  |  |  |  | 
2 | C[C@]12CC[C@@H]3c4ccc(O)cc4CC[C@H]3[C@@H]1CC[C@@H]2O [estradiol, 17β-estradiol, reference compound] |  |  | 4 ± 1 | 1,461.2 ± 584.3 mm^3 | 779.7 ± 257.7 | 100 |  |  |  |  |  |  | 
3 | CC[C@H](C)[C@H](NC(=O)[C@H](Cc1ccccc1)NC(=O)[C@H](CCC(=O)O)NC(=O)[C@H](CCCCN)NC(=O)[C@H](C)NC(=O)[C@H](C)NC(=O)[C@H](CCC(N)=O)NC(=O)[C@H](CCC(=O)O)NC(=O)[C@H](CCC(=O)O)NC(=O)[C@H](CC(C)C)NC(=O)[C@H](Cc1ccc(O)cc1)NC(=O)[C@H](CO)NC(=O)[C@H](CO)NC(=O)[C@@H](NC(=O)[C@H](CC(=O)O)NC(=O)[C@H](CO)NC(=O)[C@@H](NC(=O)[C@H](Cc1ccccc1)NC(=O)[C@@H](NC(=O)CNC(=O)[C@H](CCC(=O)O)NC(=O)C(C)(C)NC(=O)[C@@H](N)Cc1c[nH]cn1)[C@@H](C)O)[C@@H](C)O)C(C)C)C(=O)N[C@@H](C)C(=O)N[C@@H](Cc1c[nH]c2ccccc12)C(=O)N[C@@H](CC(C)C)C(=O)N[C@H](C(=O)N[C@@H](CCCCN)C(=O)NCC(=O)NCC(=O)N1CCC[C@H]1C(=O)N[C@@H](CO)C(=O)N[C@@H](CO)C(=O)NCC(=O)N[C@@H](C)C(=O)N1CCC[C@H]1C(=O)N1CCC[C@H]1C(=O)N1CCC[C@H]1C(=O)N[C@@H](CO)C(=O)N[C@@H](CCCCNC(=O)CCC(=O)Oc1ccc2c(c1)CC[C@@H]1[C@@H]2CC[C@]2(C)C(=O)CC[C@@H]12)C(N)=O)C(C)C [labile GLP-1–estrogen conjugate] |  |  |  | 92.1 ± 23.8 mm^3 | 37.0 ± 9.0 | 100 | matched the parent peptides | comparable intracellular estrogen activity to estrone | ≤ 6 | 7.5 | 50.0 ± 1.1 | 54.1 ± 0.9 | matched the parent peptides
